Each block holds one compound with its values, some of them ahead of it.
How the values were obtained:
Test in all cases: radiometric filter-binding kinase assay
[1] = molecular target: SRPK1 (human) (UniProt Q96SB4)
[2] = molecular target: CSNK1D (human) (UniProt P48730)
[3] = molecular target: PLK1 (human) (UniProt P53350)
[4] = molecular target: STK11 CAB39 STRADA (human) (UniProt Q9Y376+Q7RTN6+Q15831)
[5] = molecular target: MKNK2 (human) (UniProt Q9HBH9)
[6] = molecular target: MAPK3 (human) (UniProt P27361)
[7] = molecular target: MAPK8 (human) (UniProt P45983)
MAPK8 (human), sequence (P45983 whole entry, looked up): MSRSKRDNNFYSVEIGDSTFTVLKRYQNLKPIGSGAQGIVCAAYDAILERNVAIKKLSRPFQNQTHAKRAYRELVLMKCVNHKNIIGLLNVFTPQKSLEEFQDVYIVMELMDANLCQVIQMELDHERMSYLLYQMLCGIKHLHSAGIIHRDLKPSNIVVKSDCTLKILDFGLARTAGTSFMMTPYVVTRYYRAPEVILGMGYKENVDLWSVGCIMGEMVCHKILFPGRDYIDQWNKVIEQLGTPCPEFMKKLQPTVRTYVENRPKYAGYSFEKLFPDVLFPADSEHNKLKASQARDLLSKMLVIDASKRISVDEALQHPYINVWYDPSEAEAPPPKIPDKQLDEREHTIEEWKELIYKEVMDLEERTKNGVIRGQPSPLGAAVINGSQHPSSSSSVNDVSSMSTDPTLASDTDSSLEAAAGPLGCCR

[8] = molecular target: IKBKB (human) (UniProt O14920)
IKBKB (human), sequence (O14920 whole entry, looked up): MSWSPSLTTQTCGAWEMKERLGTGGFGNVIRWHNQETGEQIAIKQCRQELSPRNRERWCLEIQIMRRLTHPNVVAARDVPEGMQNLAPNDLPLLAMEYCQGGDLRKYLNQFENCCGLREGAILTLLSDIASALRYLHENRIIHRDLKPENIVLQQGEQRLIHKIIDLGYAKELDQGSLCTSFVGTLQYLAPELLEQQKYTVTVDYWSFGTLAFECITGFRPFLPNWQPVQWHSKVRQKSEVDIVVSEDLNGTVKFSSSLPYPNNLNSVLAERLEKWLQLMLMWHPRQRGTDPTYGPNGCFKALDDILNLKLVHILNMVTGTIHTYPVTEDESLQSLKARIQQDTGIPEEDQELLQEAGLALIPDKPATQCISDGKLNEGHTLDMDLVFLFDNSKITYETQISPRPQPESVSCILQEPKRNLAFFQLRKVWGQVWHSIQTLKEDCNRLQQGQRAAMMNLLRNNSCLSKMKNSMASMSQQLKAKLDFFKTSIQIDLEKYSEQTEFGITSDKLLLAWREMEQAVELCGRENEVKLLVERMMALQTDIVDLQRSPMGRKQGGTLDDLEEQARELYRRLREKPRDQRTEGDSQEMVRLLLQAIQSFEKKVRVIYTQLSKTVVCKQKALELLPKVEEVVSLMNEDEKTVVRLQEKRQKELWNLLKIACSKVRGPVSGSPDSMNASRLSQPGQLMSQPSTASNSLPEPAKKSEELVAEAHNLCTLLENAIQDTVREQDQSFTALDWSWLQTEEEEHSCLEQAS

[9] = molecular target: HIPK1 (human) (UniProt Q86Z02)
HIPK1 (human), sequence (Q86Z02 whole entry, looked up): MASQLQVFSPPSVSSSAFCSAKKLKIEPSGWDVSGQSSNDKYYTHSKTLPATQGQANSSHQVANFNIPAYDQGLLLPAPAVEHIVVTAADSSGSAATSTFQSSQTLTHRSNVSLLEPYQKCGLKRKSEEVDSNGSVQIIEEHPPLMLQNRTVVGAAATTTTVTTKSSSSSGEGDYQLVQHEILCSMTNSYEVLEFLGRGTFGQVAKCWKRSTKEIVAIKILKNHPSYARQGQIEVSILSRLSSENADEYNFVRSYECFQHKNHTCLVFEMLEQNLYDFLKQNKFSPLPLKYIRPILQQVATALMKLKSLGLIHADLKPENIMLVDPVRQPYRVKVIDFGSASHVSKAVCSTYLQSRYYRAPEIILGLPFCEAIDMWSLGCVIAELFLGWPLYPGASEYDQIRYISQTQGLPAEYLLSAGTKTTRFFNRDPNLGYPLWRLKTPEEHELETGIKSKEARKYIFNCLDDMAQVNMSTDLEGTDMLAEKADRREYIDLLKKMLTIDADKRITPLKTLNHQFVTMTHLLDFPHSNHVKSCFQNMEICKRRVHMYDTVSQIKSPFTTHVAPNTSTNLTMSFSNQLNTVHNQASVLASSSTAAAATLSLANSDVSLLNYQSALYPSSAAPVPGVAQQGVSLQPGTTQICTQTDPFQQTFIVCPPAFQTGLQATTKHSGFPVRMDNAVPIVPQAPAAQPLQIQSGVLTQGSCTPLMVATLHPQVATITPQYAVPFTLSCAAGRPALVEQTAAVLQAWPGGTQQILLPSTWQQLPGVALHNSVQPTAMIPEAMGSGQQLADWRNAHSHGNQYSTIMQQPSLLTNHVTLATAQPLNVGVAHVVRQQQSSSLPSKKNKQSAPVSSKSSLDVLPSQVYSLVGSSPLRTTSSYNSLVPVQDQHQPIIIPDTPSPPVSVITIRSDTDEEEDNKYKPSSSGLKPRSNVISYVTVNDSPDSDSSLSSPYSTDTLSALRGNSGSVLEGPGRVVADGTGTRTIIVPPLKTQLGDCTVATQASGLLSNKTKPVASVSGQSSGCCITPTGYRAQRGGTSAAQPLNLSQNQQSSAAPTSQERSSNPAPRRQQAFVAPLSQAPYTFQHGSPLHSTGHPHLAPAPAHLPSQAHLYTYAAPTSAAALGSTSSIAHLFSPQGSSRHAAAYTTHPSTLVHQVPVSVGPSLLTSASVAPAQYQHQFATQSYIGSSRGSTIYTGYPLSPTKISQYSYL

[10] = molecular target: AURKA (human) (UniProt O14965)
[11] = system: AKT1 (human), P31749 [S473D]
[12] = molecular target: MAP2K6 (human) (UniProt P52564)
[13] = molecular target: BRSK1 (human) (UniProt Q8TDC3)
[14] = molecular target: NEK6 (human) (UniProt Q9HC98)
[15] = molecular target: PAK7 (human) (UniProt Q9P286)
[16] = molecular target: MAPK9 (human) (UniProt P45984)
[17] = molecular target: RPS6KA5 KD1 KD2 (human) (UniProt O75582)
[18] = molecular target: TBK1 (human) (UniProt Q9UHD2)
[19] = molecular target: MAP2K2 (human) (UniProt P36507)
[20] = molecular target: BTK (human) (UniProt Q06187); details: compound 10.0 µM
[21] = molecular target: MAPK1 (human) (UniProt P28482)
[22] = molecular target: GSK3B (human) (UniProt P49841)
[23] = molecular target: ERBB4 (human) (UniProt Q15303)
[24] = molecular target: EPHA4 (human) (UniProt P54764)
EPHA4 (human), sequence (P54764 whole entry, looked up): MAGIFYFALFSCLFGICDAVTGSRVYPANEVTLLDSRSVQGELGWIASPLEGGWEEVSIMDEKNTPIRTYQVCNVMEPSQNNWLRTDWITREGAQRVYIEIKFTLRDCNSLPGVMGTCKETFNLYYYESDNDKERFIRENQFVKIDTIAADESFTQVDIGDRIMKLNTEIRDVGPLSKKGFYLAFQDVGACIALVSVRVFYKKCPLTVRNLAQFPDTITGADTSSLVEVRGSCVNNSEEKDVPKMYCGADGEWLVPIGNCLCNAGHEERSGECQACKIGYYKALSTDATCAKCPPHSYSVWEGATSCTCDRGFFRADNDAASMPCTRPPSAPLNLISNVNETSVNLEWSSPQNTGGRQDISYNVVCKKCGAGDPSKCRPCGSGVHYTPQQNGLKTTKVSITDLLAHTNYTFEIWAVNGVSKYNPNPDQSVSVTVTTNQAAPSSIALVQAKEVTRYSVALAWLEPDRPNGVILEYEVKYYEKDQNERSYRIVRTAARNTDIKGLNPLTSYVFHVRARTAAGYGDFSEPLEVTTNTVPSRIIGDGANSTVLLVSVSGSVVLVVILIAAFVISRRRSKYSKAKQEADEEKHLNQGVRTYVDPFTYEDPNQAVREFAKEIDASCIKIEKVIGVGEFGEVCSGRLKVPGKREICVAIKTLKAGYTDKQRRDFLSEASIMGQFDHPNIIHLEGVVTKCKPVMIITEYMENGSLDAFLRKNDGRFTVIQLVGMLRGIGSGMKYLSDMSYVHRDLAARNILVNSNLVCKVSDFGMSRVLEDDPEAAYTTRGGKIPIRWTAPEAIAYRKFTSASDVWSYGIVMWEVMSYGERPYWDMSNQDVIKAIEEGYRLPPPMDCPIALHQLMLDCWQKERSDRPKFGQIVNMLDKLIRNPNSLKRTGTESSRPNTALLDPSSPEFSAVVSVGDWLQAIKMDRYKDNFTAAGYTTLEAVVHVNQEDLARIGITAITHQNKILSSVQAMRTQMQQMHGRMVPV

[25] = molecular target: EEF2K (human) (UniProt O00418)
[26] = molecular target: RPS6KA3 KD1 KD2 (human) (UniProt P51812)
RPS6KA3 KD1 KD2 (human), sequence (P51812 whole entry, looked up): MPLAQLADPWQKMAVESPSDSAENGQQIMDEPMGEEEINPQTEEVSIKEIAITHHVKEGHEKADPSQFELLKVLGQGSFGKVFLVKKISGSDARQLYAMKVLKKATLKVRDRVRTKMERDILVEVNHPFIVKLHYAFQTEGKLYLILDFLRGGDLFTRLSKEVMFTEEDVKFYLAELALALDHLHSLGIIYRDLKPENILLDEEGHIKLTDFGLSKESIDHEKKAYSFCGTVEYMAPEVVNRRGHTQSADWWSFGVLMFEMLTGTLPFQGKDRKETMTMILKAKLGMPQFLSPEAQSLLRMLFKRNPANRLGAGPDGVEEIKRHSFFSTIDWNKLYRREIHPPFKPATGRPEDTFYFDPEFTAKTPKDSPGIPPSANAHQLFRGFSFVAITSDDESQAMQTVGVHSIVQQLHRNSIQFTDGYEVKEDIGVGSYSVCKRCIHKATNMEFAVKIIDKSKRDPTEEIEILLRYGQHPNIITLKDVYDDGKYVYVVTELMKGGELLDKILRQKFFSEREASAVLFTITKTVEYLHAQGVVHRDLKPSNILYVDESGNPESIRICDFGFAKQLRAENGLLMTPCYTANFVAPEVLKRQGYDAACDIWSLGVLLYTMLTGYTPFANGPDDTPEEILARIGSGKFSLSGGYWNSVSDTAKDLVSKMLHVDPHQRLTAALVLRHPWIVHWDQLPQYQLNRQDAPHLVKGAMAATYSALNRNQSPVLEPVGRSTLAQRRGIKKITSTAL

[27] = molecular target: HIPK3 (human) (UniProt Q9H422)
[28] = molecular target: MAPKAPK3 (human) (UniProt Q16644)
[29] = molecular target: BRSK2 (human) (UniProt Q8IWQ3)
[30] = system: PAK2 (human), Q13177 [T402E]
[31] = molecular target: MAPK15 (human) (UniProt Q8TD08)
[32] = molecular target: FGFR1 (human) (UniProt P11362)
FGFR1 (human), sequence (P11362 whole entry, looked up): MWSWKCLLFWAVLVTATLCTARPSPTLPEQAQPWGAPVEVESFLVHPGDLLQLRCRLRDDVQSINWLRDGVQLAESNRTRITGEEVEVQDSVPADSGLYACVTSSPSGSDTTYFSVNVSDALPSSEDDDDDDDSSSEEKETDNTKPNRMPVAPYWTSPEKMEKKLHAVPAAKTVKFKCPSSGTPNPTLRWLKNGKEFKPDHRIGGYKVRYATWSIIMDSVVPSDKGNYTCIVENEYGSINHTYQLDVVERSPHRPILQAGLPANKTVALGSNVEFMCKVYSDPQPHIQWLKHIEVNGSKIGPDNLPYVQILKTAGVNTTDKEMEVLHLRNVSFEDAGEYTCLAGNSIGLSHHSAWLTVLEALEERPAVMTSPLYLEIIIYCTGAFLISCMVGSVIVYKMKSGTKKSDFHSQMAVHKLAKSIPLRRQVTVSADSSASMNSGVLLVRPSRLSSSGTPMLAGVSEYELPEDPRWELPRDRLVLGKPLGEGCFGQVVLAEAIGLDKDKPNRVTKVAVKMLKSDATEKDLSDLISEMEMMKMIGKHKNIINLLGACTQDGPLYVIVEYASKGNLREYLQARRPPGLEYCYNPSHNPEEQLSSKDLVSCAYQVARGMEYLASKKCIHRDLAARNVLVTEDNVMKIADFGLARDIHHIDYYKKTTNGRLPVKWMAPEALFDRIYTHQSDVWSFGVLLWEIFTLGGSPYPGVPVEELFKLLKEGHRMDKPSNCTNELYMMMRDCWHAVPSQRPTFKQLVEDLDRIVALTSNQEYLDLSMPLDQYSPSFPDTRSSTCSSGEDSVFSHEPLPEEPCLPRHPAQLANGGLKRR

[33] = molecular target: MAP3K5 (human) (UniProt Q99683)
[34] = molecular target: CSK (human) (UniProt P41240)

residual activity ([1]; compound 10.0 µM): 76%
residual activity ([2]; compound 10.0 µM): 112%
residual activity ([3]; compound 10.0 µM): 92%
residual activity ([4]; compound 10.0 µM): 134%
residual activity ([5]; compound 10.0 µM): 89%
residual activity ([6]; compound 10.0 µM): 103%
residual activity ([7]; compound 10.0 µM): 117%
residual activity ([8]; compound 10.0 µM): 108%
residual activity ([9]; compound 10.0 µM): 98%
residual activity ([10]; compound 10.0 µM): 76%
residual activity ([11]; compound 10.0 µM): 79%
residual activity ([12]; compound 10.0 µM): 87%
residual activity ([13]; compound 10.0 µM): 86%
residual activity ([14]; compound 10.0 µM): 106%
residual activity ([15]; compound 10.0 µM): 118%
residual activity ([16]; compound 10.0 µM): 93%
residual activity ([17]; compound 10.0 µM): 62%
residual activity ([18]; compound 10.0 µM): 100%
residual activity ([19]; compound 10.0 µM): 9%
residual activity [20]: 70%
residual activity ([21]; compound 10.0 µM): 82%
residual activity ([22]; compound 10.0 µM): 106%
residual activity ([23]; compound 10.0 µM): 91%
residual activity ([24]; compound 10.0 µM): 75%
residual activity ([25]; compound 10.0 µM): 97%
residual activity ([26]; compound 10.0 µM): 37%
residual activity ([27]; compound 10.0 µM): 103%
residual activity ([28]; compound 10.0 µM): 41%
residual activity ([29]; compound 10.0 µM): 42%
residual activity ([30]; compound 10.0 µM): 91%
residual activity ([32]; compound 10.0 µM): 69%
SMILES: CCOC(=O)c1ccc(N2NC(=O)/C(=C/c3ccc([N+](=O)[O-])o3)C2=O)cc1
residual activity ([31]; compound 10.0 µM): 86%

residual activity ([1]; compound 0.1 µM): 97%
residual activity ([1]; compound 1.0 µM): 84%
residual activity ([2]; compound 0.1 µM): 89%
residual activity ([2]; compound 1.0 µM): 57%
residual activity ([3]; compound 0.1 µM): 98%
residual activity ([3]; compound 1.0 µM): 94%
residual activity ([4]; compound 0.1 µM): 106%
residual activity ([4]; compound 1.0 µM): 95%
residual activity ([5]; compound 0.1 µM): 84%
residual activity ([5]; compound 1.0 µM): 67%
residual activity ([6]; compound 0.1 µM): 103%
residual activity ([6]; compound 1.0 µM): 99%
residual activity ([7]; compound 0.1 µM): 13%
residual activity ([7]; compound 1.0 µM): 6%
residual activity ([8]; compound 0.1 µM): 62%
residual activity ([8]; compound 1.0 µM): 74%
residual activity ([9]; compound 0.1 µM): 103%
residual activity ([9]; compound 1.0 µM): 87%
residual activity ([10]; compound 0.1 µM): 97%
residual activity ([10]; compound 1.0 µM): 91%
residual activity ([11]; compound 0.1 µM): 102%
residual activity ([11]; compound 1.0 µM): 98%
residual activity ([12]; compound 0.1 µM): 100%
residual activity ([12]; compound 1.0 µM): 95%
residual activity ([13]; compound 0.1 µM): 99%
residual activity ([13]; compound 1.0 µM): 87%
residual activity ([14]; compound 0.1 µM): 95%
residual activity ([14]; compound 1.0 µM): 87%
residual activity ([15]; compound 0.1 µM): 100%
residual activity ([15]; compound 1.0 µM): 82%
residual activity ([16]; compound 1.0 µM): 17%
residual activity ([17]; compound 0.1 µM): 91%
residual activity ([17]; compound 1.0 µM): 80%
residual activity ([18]; compound 1.0 µM): 106%
residual activity ([19]; compound 0.1 µM): 98%
residual activity ([19]; compound 1.0 µM): 92%
residual activity ([33]; compound 0.1 µM): 100%
residual activity ([33]; compound 1.0 µM): 91%
residual activity ([21]; compound 0.1 µM): 110%
residual activity ([21]; compound 1.0 µM): 100%
residual activity ([22]; compound 0.1 µM): 114%
residual activity ([22]; compound 1.0 µM): 90%
residual activity ([34]; compound 0.1 µM): 110%
residual activity ([34]; compound 1.0 µM): 93%
residual activity ([23]; compound 0.1 µM): 102%
residual activity ([23]; compound 1.0 µM): 98%
residual activity ([24]; compound 0.1 µM): 87%
residual activity ([24]; compound 1.0 µM): 80%
residual activity ([25]; compound 0.1 µM): 98%
residual activity ([25]; compound 1.0 µM): 95%
residual activity ([26]; compound 0.1 µM): 82%
residual activity ([26]; compound 1.0 µM): 76%
residual activity ([27]; compound 0.1 µM): 97%
residual activity ([27]; compound 1.0 µM): 90%
residual activity ([28]; compound 1.0 µM): 90%
residual activity ([29]; compound 0.1 µM): 87%
residual activity ([29]; compound 1.0 µM): 77%
residual activity ([30]; compound 0.1 µM): 99%
residual activity ([30]; compound 1.0 µM): 90%
residual activity ([32]; compound 0.1 µM): 103%
residual activity ([32]; compound 1.0 µM): 82%
SMILES: Cc1cc(NC(=O)c2cccc(NC(=O)/C=C/CN(C)C)c2)ccc1Nc1nccc(-c2cccnc2)n1
residual activity ([31]; compound 0.1 µM): 90%
residual activity ([31]; compound 1.0 µM): 64%
